The values below come from patent US6706740B2, “Fungicidal heterocyclic aromatic amides and their compositions, methods of use and preparation” (Dow AgroSciences LLC, priority 1999, dated 2004).

Structures are written as SMILES. Where two headings read alike, the source gives them in different places.

Experiment [1] concerns Puccinia recondita—PUCCRT. In words: Brown Rust of Wheat, in vivo whole plant, 24 Hour Protectant. To be noted: control of fungal infection vs untreated plants; for pest or weed control at 100 ppm: Puccinia, read-out: PUCCRT in vivo 1 Day Protectant.
The test system of another experiment is Erysiphe graminis—ERYSGT. In words: Powdery Mildew of Wheat, in vivo whole plant, 24 Hour Protectant. To be noted: Erysiphe, control of fungal infection vs untreated plants, read-out: ERYSGT in vivo 1 Day Protectant.
For experiment [2], the system named is Leptosphaeria nodorum—LEPTNO. In words: Glume Blotch of Wheat, in vivo whole plant, 24 Hour Protectant. To be noted: Leptosphaeria, control of fungal infection vs untreated plants, read-out: LEPTNO in vivo 1 Day Protectant.
Experiment [3] relates to Phytophthora infestans—PHYTIN. As to the kind of experiment: whole plant or invertebrate. The class given is in vivo. Particulars: Phytophthora, in Solanum lycopersicum, 24 h, read-out: PHYTIN in vivo 1 Day Protectant.
The test system of experiment [4] is Mycosphaerella graminicola (Septoria tritici—SEPTTR). As to the kind of experiment: In vitro fungal growth inhibition, Mycosphaerella graminicola (SEPTTR). It is filed as cell-based. To be noted: Zymoseptoria tritici, read-out: SEPTTR in vitro Growth Inhibition.
The test system of the next experiment is Ustilago maydis (USTIMA). As to the kind of experiment: microbe, parasite or virus in culture. Particulars: Mycosarcoma maydis, read-out: USTIMA in vitro Growth Inhibition. The class given is cell-based.
Experiment [5] deals with Phytophthora infestans (PHYTIN). In words: microbe, parasite or virus in culture. The class given is cell-based. Particulars: Phytophthora infestans, read-out: PHYTIN in vitro Growth Inhibition.
Experiment [6] has as its system Stagonospora nodorum (Leptosphaeria nodorum—LEPTNO). As to the kind of experiment: In vitro fungal growth inhibition, Stagonospora nodorum (LEPTNO). The class given is cell-based. Particulars: Leptosphaeria, read-out: LEPTNO in vitro Growth Inhibition.
Experiment [7] has as its system Magnaporthe grisea (Pyricularia oryzae—PYRIOR). In words: microbe, parasite or virus in culture. To be noted: Pyricularia oryzae, read-out: PYRIOR in vitro Growth Inhibition. It is filed as cell-based.
The subject of another experiment is Septoria tritici—SEPTTR. As to the kind of experiment: Leaf Blotch of Wheat, in vivo whole plant, 24 Hour Protectant. Particulars: Zymoseptoria tritici, 24 h, control of fungal infection vs untreated plants, read-out: SEPTTR in vivo 1 Day Protectant.
For experiment [8], the system named is Rhizoctonia solani (RHIZSO). In words: microbe, parasite or virus in culture. The class given is cell-based. Particulars: Rhizoctonia solani, read-out: RHIZSO in vitro Growth Inhibition.
The mark [9] stands for this setting: wheat plants sprayed at 100 ppm, inoculated after 24 hours.
Where [10] appears, read: 100 ppm spray, 24 hour protectant, wheat.
Setting [11] is: 100 ppm spray, wheat, 24 hour protectant.

Consider `COc1ccnc(C(=O)N[C@@H]2O[C@H](COC(C)=O)[C@H](OC(C)=O)[C@H](OC(C)=O)[C@H]2OC(C)=O)c1OC(C)=O` [Compound 591], for which the pest or weed control at 100 ppm in experiment [1] (setting [9]) is under 25%; with Erysiphe graminis—ERYSGT (setting [9]), under 25%; in [2] (setting [9]) it was 25 to 74%; in experiment [3], under 25%; with Septoria tritici—SEPTTR (setting [9]) it was 25 to 74%. Also, the inhibition at 25 ppm (in [4] (25 ppm in the growth medium); in the experiment on Ustilago maydis (USTIMA); in [5]; in experiment [6] (25 ppm in the growth medium); in experiment [7]; in [8]) was under 80% throughout.

On to `CC(NC(=O)c1ccncc1O)c1ccc(Cl)cc1` (stereo not shown) [Compound 509], for which the pest or weed control at 100 ppm (in experiment [1] (setting [9]); with Erysiphe graminis—ERYSGT (setting [9]); in [2] (setting [9]); in experiment [3]; in the experiment with Septoria tritici—SEPTTR (setting [9])) was under 25% each time. For the same compound, the inhibition at 25 ppm (in experiment [4] (25 ppm in the growth medium); in the experiment with Ustilago maydis (USTIMA); in experiment [5]; in experiment [6] (25 ppm in the growth medium); in experiment [7]; in [8]) was under 80% each time.

With `CCCCCCCCCNC(=O)c1ncccc1O` [Compound 201], the pest or weed control at 100 ppm (in experiment [1] (setting [10]); in the experiment with Erysiphe graminis—ERYSGT (setting [10]); in experiment [2] (setting [10]); in [3]; with Septoria tritici—SEPTTR (setting [10])) was under 25% in each case. The inhibition at 25 ppm in [4] (25 ppm in growth medium) was under 80%; with Ustilago maydis (USTIMA) it was under 80%; in [5] it was under 80%; in [6] (25 ppm in growth medium) it was under 80%; in experiment [7], over 80%; in [8], under 80%.

For the compound `COc1ccc(C(C)NC(=O)c2ccncc2O)cc1` (stereo not shown) [Compound 508], the pest or weed control at 100 ppm (in experiment [1] (setting [9]); with Erysiphe graminis—ERYSGT (setting [9]); in experiment [2] (setting [9]); in experiment [3]; with Septoria tritici—SEPTTR (setting [9])) was under 25% each time. Besides, the inhibition at 25 ppm (in [4] (25 ppm in the growth medium); in the experiment on Ustilago maydis (USTIMA); in [5]; in experiment [6] (25 ppm in the growth medium); in experiment [7]; in [8]) was under 80% in each case.

On to `COc1ccc(Oc2ccccc2NC(=O)c2nccc(OC)c2O)cc1` [Compound 429], for which the pest or weed control at 100 ppm (in [1] (setting [11]); in the experiment on Erysiphe graminis—ERYSGT (setting [11]); in experiment [2] (setting [11]); in experiment [3]; in the experiment on Septoria tritici—SEPTTR (setting [11])) was under 25% each time. The inhibition at 25 ppm in experiment [4] (25 ppm in growth medium) was over 80%; in the experiment on Ustilago maydis (USTIMA), under 80%; in experiment [5] it was under 80%; in experiment [6] (25 ppm in growth medium), under 80%; in [7] it was under 80%; in experiment [8], under 80%.

In the case of `COc1ccnc(C(=O)NC2CC(C)(C)C3OC3[C@H](C)[C@H]2C)c1O` (stereo partly shown) [Compound 280], the pest or weed control at 100 ppm in experiment [1] (setting [10]) is 25 to 74%; with Erysiphe graminis—ERYSGT (setting [10]), under 25%; in [2] (setting [10]), 25 to 74%; in [3], 25 to 74%; in the experiment on Septoria tritici—SEPTTR (setting [10]) it was 25 to 74%. The inhibition at 25 ppm (in experiment [4] (25 ppm in growth medium); with Ustilago maydis (USTIMA); in experiment [5]; in [6] (25 ppm in growth medium); in experiment [7]; in experiment [8]) was under 80% in each case.

`COc1ccnc(C(=O)NC(COC(=O)C(C)Cc2ccccc2)C(=O)OC(C)C)c1OC(C)=O` (stereo not shown) [Compound 588]: the “PUCCRT in vivo 1 Day Protectant” value in experiment [1] (setting [9]) is on record as “+ +”. The pest or weed control at 100 ppm with Erysiphe graminis—ERYSGT (setting [9]) was under 25%; in experiment [2] (setting [9]), 25 to 74%; in [3] it was under 25%; in the experiment on Septoria tritici—SEPTTR (setting [9]) it was under 25%. For the same compound, the inhibition at 25 ppm (in experiment [4] (25 ppm in the growth medium); with Ustilago maydis (USTIMA); in experiment [5]; in experiment [6] (25 ppm in the growth medium); in [7]; in [8]) was under 80% throughout.

With `COc1ccnc(C(=O)NC2CC(C)(C)C(=O)C(C)(C)C2)c1OC(C)=O` [Compound 575], the pest or weed control at 100 ppm in experiment [1] (setting [9]) is 25 to 74%; in the experiment with Erysiphe graminis—ERYSGT (setting [9]), under 25%; in experiment [2] (setting [9]), 25 to 74%; in [3], under 25%; in the experiment with Septoria tritici—SEPTTR (setting [9]), 25 to 74%. For the same compound, the inhibition at 25 ppm (in experiment [4] (25 ppm in the growth medium); in the experiment on Ustilago maydis (USTIMA); in experiment [5]; in experiment [6] (25 ppm in the growth medium); in experiment [7]; in experiment [8]) was under 80% in each case.

For the compound `COc1ccnc(C(=O)NC2C[C@H](C)C[C@H](c3ccccn3)C2)c1O` (stereo partly shown) [Compound 259], the pest or weed control at 100 ppm in [1] (setting [10]) is 25 to 74%; with Erysiphe graminis—ERYSGT (setting [10]), under 25%; in [2] (setting [10]) it was 25 to 74%; in experiment [3] it was 25 to 74%; in the experiment with Septoria tritici—SEPTTR (setting [10]), 25 to 74%. The inhibition at 25 ppm (in experiment [4] (25 ppm in growth medium); with Ustilago maydis (USTIMA); in experiment [5]; in [6] (25 ppm in growth medium); in experiment [7]; in experiment [8]) was under 80% each time.

Turning to `O=C(NCc1ccc(Cl)cc1)c1ccncc1O` [Compound 507], the pest or weed control at 100 ppm (in experiment [1] (setting [9]); with Erysiphe graminis—ERYSGT (setting [9]); in experiment [2] (setting [9]); in experiment [3]; in the experiment with Septoria tritici—SEPTTR (setting [9])) was under 25% each time. For the same compound, the inhibition at 25 ppm (in experiment [4] (25 ppm in the growth medium); with Ustilago maydis (USTIMA); in experiment [5]; in experiment [6] (25 ppm in the growth medium); in experiment [7]; in experiment [8]) was under 80% throughout.

With `COc1ccnc(C(=O)NC(COC(=O)CC(C)OC(=O)C(C)C)C(=O)OC(C)C)c1O` (stereo not shown) [Compound 352], the pest or weed control at 100 ppm was 25 to 74% in experiment [1] (setting [11]); under 25% in the experiment on Erysiphe graminis—ERYSGT (setting [11]); under 25% in experiment [2] (setting [11]); under 25% in [3]; under 25% in the experiment with Septoria tritici—SEPTTR (setting [11]). Besides, the inhibition at 25 ppm (in experiment [4] (25 ppm in growth medium); in the experiment on Ustilago maydis (USTIMA); in [5]; in experiment [6] (25 ppm in growth medium); in experiment [7]; in experiment [8]) was under 80% each time.
